Assay results: ChEMBL document CHEMBL5537122, “Design, synthesis, and biological evaluation of 4-(2-fluorophenoxy)-7-methoxyquinazoline derivatives as dual EGFR/c-Met inhibitors for the treatment of NSCLC” (Eur J Med Chem, 2024)
Active and inactive are the calls of the source. No cut-off for these calls is given here.

Assays:
A549 [1] = test: Antiproliferative activity against human A549 cells overexpressing c-Met and EGFR assessed as reduction in cell viability incubated for 72 hrs by MTT assay; assay type: functional, cell-based; settings: A549, 72 h
PC-9 = test: Antiproliferative activity against human PC-9 cells overexpressing c-Met and EGFR assessed as reduction in cell viability incubated for 72 hrs by MTT assay; assay type: functional, cell-based; settings: PC-9, 72 h
A549 [2] = test: Induction in apoptosis in human A549 cells overexpressing c-MET assessed as viable cells at 1 uM incubated for 24 hrs by Annexin V-FITC/Propidium Iodide staining based flow cytometry analysis (reference value: 81.92 %); assay type: functional; settings: read-out: Activity
A549 [3] = test: Induction in apoptosis in human A549 cells overexpressing c-MET assessed as late apoptotic cells at 1 uM incubated for 24 hrs by Annexin V-FITC/Propidium Iodide staining based flow cytometry analysis (reference value: 7.59 %); assay type: functional
A549 [4] = test: Induction in apoptosis in human A549 cells overexpressing c-MET assessed as early apoptotic cells at 2.5 uM incubated for 24 hrs by Annexin V-FITC/Propidium Iodide staining based flow cytometry analysis (reference value: 7.27 %); assay type: functional
NCI-H1975 [5] = test: Induction in apoptosis in human NCI-H1975 cells assessed as viable cells at 1 uM incubated for 24 hrs by Annexin V-FITC/Propidium Iodide staining based flow cytometry analysis (reference value: 91.58 %); assay type: functional; settings: read-out: Activity
NCI-H1975 [6] = test: Induction in apoptosis in human NCI-H1975 cells assessed as necrotic cells at 2.5 uM incubated for 24 hrs by Annexin V-FITC/Propidium Iodide staining based flow cytometry analysis (reference value: 1.42 %); assay type: functional
L02 [7] = test: Induction in apoptosis in human L02 cells assessed as early apoptotic cells at 1 uM incubated for 24 hrs by Annexin V-FITC/Propidium Iodide staining based flow cytometry analysis (reference value: 0.26 %); assay type: toxicity, cell-based; settings: l02, 24 h
L02 [8] = test: Induction in apoptosis in human L02 cells assessed as late apoptotic cells at 1 uM incubated for 24 hrs by Annexin V-FITC/Propidium Iodide staining based flow cytometry analysis (reference value: 0.36 %); assay type: toxicity, cell-based; settings: l02, 24 h
L02 [9] = test: Induction in apoptosis in human L02 cells assessed as necrotic cells at 1 uM incubated for 24 hrs by Annexin V-FITC/Propidium Iodide staining based flow cytometry analysis (reference value: 6.63 %); assay type: toxicity, cell-based; settings: l02, 24 h
A549 [10] = test: Downregulation of phosphorylated Akt expression level human A549 cells overexpressing c-MET incubated for 24 hrs by Western blotting analysis; assay type: functional, cell-based; settings: dose 0.2-10 µM
[11] = target: T1, Epidermal growth factor receptor (Homo sapiens, UniProt P00533); test: Inhibition of wild type EGFR (unknown origin) at 10 uM relative to control
T1 sequence (P00533 whole entry): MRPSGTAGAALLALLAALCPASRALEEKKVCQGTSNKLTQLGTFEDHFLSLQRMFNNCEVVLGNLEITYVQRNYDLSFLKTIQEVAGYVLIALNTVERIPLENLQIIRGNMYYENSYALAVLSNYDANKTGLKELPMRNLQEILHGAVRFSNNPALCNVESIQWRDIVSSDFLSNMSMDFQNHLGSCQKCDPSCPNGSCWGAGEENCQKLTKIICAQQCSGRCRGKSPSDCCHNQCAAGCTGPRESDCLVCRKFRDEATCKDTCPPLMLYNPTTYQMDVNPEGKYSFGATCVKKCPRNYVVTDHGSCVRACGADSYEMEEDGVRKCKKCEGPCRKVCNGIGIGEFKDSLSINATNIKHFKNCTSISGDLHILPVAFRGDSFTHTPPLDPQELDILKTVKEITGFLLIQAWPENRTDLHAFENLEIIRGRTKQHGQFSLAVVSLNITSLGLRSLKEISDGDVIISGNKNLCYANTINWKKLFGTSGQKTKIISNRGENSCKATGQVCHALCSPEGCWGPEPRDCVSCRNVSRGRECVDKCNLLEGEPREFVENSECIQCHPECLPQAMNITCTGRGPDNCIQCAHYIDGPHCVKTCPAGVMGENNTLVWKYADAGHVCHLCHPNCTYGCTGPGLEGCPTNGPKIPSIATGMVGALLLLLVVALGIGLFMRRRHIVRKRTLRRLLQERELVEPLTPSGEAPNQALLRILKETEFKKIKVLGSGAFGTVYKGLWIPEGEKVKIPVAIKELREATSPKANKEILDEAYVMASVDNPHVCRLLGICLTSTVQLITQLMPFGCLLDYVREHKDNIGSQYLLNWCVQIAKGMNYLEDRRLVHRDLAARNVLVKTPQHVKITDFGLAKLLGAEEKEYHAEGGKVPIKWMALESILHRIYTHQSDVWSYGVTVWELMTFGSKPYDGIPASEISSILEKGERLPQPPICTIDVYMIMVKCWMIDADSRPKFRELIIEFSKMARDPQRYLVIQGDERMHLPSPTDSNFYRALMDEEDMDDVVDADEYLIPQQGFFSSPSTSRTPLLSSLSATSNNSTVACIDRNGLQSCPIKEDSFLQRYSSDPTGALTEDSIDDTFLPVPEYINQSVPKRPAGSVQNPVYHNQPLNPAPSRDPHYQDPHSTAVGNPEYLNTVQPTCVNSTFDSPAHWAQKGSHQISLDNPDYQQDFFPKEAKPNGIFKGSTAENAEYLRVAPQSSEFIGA

[12] = target: Vascular endothelial growth factor receptor 3 (Homo sapiens) (UniProt P35916); test: Inhibition of FLT4 (unknown origin) at 10 uM
[13] = target: Vascular endothelial growth factor receptor 1 (Homo sapiens) (UniProt P17948); test: Inhibition of FLT1 (unknown origin) at 10 uM
Chain of Vascular endothelial growth factor receptor 1 (Homo sapiens) (P17948 whole entry): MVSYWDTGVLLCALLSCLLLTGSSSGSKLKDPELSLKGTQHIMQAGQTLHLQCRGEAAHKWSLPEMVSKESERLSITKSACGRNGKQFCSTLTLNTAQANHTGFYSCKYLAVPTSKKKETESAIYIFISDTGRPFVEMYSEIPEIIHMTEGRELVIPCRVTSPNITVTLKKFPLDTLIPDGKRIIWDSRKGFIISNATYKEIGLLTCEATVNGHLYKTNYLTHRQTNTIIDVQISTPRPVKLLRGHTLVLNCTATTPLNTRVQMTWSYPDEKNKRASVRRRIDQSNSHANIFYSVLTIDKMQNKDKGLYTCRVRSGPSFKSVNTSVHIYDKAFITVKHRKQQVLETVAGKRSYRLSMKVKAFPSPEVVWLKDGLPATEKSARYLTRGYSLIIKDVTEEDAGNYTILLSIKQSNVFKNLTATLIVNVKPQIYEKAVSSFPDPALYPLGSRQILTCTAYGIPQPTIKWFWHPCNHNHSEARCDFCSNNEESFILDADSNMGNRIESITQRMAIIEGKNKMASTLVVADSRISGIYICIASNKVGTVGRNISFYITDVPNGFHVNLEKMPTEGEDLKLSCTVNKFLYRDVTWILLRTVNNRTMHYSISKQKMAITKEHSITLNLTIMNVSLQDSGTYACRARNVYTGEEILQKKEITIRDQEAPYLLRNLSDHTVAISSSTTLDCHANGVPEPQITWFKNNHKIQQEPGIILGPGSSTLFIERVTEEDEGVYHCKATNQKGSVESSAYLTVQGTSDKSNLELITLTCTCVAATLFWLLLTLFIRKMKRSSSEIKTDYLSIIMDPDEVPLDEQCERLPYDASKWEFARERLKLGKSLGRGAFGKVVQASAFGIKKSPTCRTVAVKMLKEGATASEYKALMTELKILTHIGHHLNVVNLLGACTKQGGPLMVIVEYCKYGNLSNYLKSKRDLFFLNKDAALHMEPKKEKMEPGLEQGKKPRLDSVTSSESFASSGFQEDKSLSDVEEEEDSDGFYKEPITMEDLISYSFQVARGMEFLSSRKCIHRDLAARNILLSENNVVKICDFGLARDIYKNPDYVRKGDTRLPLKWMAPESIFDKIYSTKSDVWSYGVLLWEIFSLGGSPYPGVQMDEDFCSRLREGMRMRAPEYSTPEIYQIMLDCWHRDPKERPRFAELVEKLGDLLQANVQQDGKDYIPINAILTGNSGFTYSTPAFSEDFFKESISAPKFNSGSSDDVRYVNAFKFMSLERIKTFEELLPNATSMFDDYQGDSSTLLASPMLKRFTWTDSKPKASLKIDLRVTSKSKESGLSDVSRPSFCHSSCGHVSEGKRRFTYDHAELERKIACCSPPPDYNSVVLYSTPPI

[14] = target: Tyrosine-protein kinase receptor UFO (Homo sapiens) (UniProt P30530); test: Inhibition of AXL (unknown origin) at 10 uM
[15] = target: Fibroblast growth factor receptor 4 (Homo sapiens) (UniProt P22455); test: Inhibition of FGFR4 (unknown origin) at 10 uM
[16] = target: Insulin-like growth factor 1 receptor (Homo sapiens) (UniProt P08069); test: Inhibition of IGF-1R (unknown origin) at 10 uM
[17] = target: Receptor-type tyrosine-protein kinase FLT3 (Homo sapiens) (UniProt P36888); test: Inhibition of FLT3 (unknown origin) at 10 uM
[18] = target: Fibroblast growth factor receptor 3 (Homo sapiens) (UniProt P22607); test: Inhibition of FGFR3 (unknown origin) at 10 uM
Chain of Fibroblast growth factor receptor 3 (Homo sapiens) (P22607 23-806 limits assumed): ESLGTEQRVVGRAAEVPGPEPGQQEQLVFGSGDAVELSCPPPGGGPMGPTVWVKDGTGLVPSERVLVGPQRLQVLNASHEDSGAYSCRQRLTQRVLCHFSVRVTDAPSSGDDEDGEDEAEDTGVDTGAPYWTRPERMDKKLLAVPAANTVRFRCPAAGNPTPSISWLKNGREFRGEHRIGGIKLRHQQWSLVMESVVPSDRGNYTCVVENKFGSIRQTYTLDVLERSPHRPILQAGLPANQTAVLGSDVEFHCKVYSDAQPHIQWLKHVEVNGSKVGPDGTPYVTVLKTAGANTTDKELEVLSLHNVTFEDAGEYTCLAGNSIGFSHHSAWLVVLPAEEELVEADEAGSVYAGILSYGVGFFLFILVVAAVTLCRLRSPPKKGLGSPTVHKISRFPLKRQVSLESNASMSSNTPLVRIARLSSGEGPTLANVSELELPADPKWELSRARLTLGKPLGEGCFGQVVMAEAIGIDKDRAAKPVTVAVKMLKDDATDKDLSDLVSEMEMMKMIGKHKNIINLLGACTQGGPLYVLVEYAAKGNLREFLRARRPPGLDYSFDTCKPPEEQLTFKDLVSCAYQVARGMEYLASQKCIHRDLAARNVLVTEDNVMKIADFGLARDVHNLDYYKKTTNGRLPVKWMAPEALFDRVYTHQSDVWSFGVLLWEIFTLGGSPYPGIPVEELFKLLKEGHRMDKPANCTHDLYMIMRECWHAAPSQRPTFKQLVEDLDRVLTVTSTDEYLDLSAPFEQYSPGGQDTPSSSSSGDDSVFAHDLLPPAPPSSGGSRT

Homo sapiens = species: Homo sapiens; test: Inhibition of EGFR T790/C797S mutant (unknown origin) at 10 uM
[19] = target: Serine/threonine-protein kinase Nek2 (Homo sapiens) (UniProt P51955); test: Inhibition of NEK2 (unknown origin) at 10 uM
[20] = target: Fibroblast growth factor receptor 1 (Homo sapiens) (UniProt P11362); test: Inhibition of FGFR1 (unknown origin) at 10 uM
[21] = target: Mitogen-activated protein kinase 1 (Homo sapiens) (UniProt P28482); test: Inhibition of MAPK1 (unknown origin) at 10 uM
Chain of Mitogen-activated protein kinase 1 (Homo sapiens) (P28482 whole entry): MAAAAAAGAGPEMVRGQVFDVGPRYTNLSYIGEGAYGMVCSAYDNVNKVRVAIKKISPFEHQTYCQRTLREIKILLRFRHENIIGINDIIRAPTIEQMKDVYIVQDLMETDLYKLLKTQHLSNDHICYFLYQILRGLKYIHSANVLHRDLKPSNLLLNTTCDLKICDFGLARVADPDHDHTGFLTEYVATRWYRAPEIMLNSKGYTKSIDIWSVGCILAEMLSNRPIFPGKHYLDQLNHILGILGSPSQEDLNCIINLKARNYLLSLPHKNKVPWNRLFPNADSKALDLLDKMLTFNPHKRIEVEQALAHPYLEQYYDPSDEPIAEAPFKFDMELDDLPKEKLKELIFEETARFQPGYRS

[22] = Hemolytic activity in sheep erythrocytes at 128 ug/ml incubated for 2 hr by UV spectrophotometer relative to control; assay type: toxicity, cell-based, Ovis aries, Erythrocyte; settings: at 128 µg/mL, read-out: Activity
[23] = Hepatotoxicity in KM mouse assessed as effect on aspartate aminotransferase level at 100 mg/kg, IG qd administered for 7 days by automatic biochemical analyzer; assay type: toxicity, organism-based; settings: in vivo, po, 168 h, time 7 day
[24] = Hepatotoxicity in KM mouse assessed as effect on alanine aminotransferase level at 100 mg/kg, IG qd administered for 7 days by automatic biochemical analyzer; assay type: toxicity, organism-based; settings: in vivo, po, 168 h, time 7 day
[25] = Hepatotoxicity in KM mouse assessed as alkaline phosphatase level at 100 mg/kg, IG qd administered for 7 days by automatic biochemical analyzer; assay type: toxicity, organism-based; settings: in vivo, po, 168 h, time 7 day
[26] = Nephrotoxicity in KM mouse assessed as effect on creatinine level at 100 mg/kg, IG qd administered for 7 days by automatic biochemical analyzer; assay type: toxicity, organism-based; settings: in vivo, po, 168 h, time 7 day
[27] = Acute toxicity in KM mouse assessed as cell damage or necrosis in spleen at 100 mg/kg, IG qa administered for 7 days and measured on day 8 by hematoxylin and eosin staining based assay; assay type: organism-based; settings: in vivo, po, 192 h, time 8 day
[28] = Acute toxicity in KM mouse assessed as cell damage or necrosis in kidney at 100 mg/kg, IG qa administered for 7 days and measured on day 8 by hematoxylin and eosin staining based assay; assay type: organism-based; settings: in vivo, po, 192 h, time 8 day
A549 [29] = test: Antitumor activity against human A549 cells overexpressing c-MET xenografted in BALB/c nude mouse assessed as reduction in tumor volume at 60 mg/kg, IG qod measured for 24 days; assay type: functional, organism-based; settings: time 24.0 day
A549 [30] = test: Inhibition of colony formation in human A549 cells overexpressing c-MET at 2 uM preincubated for 48 hrs followed by media replacement for every 2 days for 14 days by crystal violet staining based microscopic analysis relative to control; assay type: functional
[31] = target: T2, Hepatocyte growth factor receptor (Homo sapiens, UniProt P08581); test: Potency index, ratio of foretinib IC50 to test compound IC50 for inhibition of N-terminal GST tagged human recombinant c-Met (956 to end residues) expressed in baculovirus infected Sf9 cells using Poly (4:1 Glu, Tyr) as substrate incubated for 60 mins in presence of ATP by ADP-Glo luminescent assay
T2 sequence (P08581 whole entry): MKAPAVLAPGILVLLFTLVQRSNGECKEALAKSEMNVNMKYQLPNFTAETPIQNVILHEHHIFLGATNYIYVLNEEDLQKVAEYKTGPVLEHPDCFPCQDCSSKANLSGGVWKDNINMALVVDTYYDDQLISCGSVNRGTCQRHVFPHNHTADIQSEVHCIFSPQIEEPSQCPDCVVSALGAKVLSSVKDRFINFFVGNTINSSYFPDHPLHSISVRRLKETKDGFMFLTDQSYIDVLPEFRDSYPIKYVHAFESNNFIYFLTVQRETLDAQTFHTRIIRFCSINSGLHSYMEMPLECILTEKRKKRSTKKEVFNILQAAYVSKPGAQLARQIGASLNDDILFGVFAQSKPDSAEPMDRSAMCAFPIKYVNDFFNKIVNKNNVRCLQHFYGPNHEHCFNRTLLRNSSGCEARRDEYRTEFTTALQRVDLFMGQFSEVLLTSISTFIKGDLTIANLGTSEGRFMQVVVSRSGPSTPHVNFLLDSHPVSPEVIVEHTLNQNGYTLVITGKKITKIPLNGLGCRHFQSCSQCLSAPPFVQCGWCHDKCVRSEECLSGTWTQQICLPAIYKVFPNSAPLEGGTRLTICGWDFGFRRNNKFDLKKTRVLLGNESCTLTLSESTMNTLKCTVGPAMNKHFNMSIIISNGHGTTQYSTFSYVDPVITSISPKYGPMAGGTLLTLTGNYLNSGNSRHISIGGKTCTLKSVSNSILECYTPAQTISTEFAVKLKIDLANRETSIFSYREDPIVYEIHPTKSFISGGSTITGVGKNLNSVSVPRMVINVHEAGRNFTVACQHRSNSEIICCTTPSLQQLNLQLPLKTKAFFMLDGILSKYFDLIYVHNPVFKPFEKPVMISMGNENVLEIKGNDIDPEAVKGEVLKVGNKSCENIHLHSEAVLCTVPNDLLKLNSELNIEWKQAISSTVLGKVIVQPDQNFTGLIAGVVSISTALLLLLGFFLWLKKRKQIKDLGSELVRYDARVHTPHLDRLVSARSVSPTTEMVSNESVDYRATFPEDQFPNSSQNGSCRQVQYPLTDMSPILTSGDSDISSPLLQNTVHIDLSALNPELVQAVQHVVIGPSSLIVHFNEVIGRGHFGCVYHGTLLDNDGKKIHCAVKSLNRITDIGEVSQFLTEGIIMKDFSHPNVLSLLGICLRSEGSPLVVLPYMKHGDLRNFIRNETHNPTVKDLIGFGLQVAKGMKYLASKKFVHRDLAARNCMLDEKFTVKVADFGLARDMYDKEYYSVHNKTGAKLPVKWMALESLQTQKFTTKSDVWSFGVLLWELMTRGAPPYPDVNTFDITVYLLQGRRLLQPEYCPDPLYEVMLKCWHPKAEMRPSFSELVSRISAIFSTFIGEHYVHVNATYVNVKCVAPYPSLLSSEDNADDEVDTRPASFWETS

[32] = target: T1, Epidermal growth factor receptor; test: biochemical
Description: Inhibition of N-terminal GST tagged human recombinant EGFR (695 to end residues) expressed in baculovirus infected Sf9 cells using Poly (4:1 Glu, Tyr) as substrate incubated for 60 mins in presence of ATP by ADP-Glo luminescent assay

[33] = target: Epidermal growth factor receptor (Homo sapiens, UniProt P00533, L858R); test: biochemical
[34] = target: T2, Hepatocyte growth factor receptor; test: biochemical
Description: Inhibition of N-terminal GST tagged human recombinant c-Met (956 to end residues) expressed in baculovirus infected Sf9 cells using Poly (4:1 Glu, Tyr) as substrate incubated for 60 mins in presence of ATP by ADP-Glo luminescent assay

C=CC(=O)Nc1cc2c(Oc3ccc(NC(=O)n4c(=O)c(-c5ccccc5)c(C)n4C)cc3F)cccc2cc1OC
IC50 (A549 [1]): 1060 nM
IC50 (PC-9): 1050 nM
viability at 1 µM (A549 [2]): 70.9%
Activity (A549 [3]): 12.12%
Activity (A549 [4]): 10.44%
viability at 1 µM (NCI-H1975 [5]): 88.2%
Activity (NCI-H1975 [6]): 2.49%
Activity (L02 [7]): 0.21%
Activity (L02 [8]): 0.28%
Activity (L02 [9]): 7.58%
Activity (A549 [10]): Dose-Dependent Effect
inhibition [11]: > 90%
inhibition [12]: Active
inhibition [13]: Active
inhibition [14]: inactive
inhibition [15]: inactive
inhibition [16]: inactive
inhibition [17]: inactive
inhibition [18]: inactive
inhibition (Homo sapiens): inactive
inhibition [19]: inactive
inhibition [20]: inactive
inhibition [21]: inactive
hemolysis at 2 h, 128 ug/ml [22]: 5%
Activity [23]: Non-Toxic
Activity [24]: Non-Toxic
Activity [25]: > 60 U/L
Activity [26]: Non-Toxic
Activity [27]: Non-Toxic
Activity [28]: Non-Toxic
Activity (A549 [29]): Active
inhibition at 2 µM (A549 [30]): ~100%
Ratio IC50 [31]: 28
IC50 [32]: 99.8 nM
IC50 [33]: 68.1 nM
IC50 [34]: 0.26 nM
